Test results from patent US7989495B2, “Compositions and methods for inhibiting NF-κB mediated tumorigenicity and adhesion dependent survival of cancer cells” (University of Utah Research Foundation, priority 2002, dated 2011).

Assays:
HCT-116 xenografts = experiment: Subcutaneous colon cancer xenograft in athymic mice; format: in vivo
Experimental: DLD-1, HCT-116, and HT-29 cells were cultured for 6 days in soft agar in the presence of DMSO (control), 10 μM BAY 11-7082, or 10 μM BAY 11-7085. The data points represent the means of colony counts per field (20×) performed in 5 different regions of the culture dishes. The data shown represent a typical result of two separate experiments. FIGS. 2B,C, show athymic mice received subcutaneous injections of HT-29 (B) or HCT-116 (C) cells, followed by […] of BAY 11-7085 (dark bars) or DMSO (white bars) intraperitoneally twice weekly. The bars represent the 25-75% ranges of the tumor volumes and the horizontal lines in the bars are the medians. Using the Kruskal-Wallace statistical test to compare the median tumor volumes between BAY 11-7085 and DMSO yielded a p-value of 0.005 for HT-29 cells but >0.05 for HCT-116 cells.
HT-29 and HCT-116 cells were harvested in 0.25% trypsin-PBS-EDTA, washed once in media and PBS, and resuspended in PBS at 1 million cells per 200 μL. One million cells were injected either subcutaneously in the backs or intraperitoneally in 5 week old female nu/nu athymic mice (Charles River Labs). For the mice with subcutaneous tumors, the tumors were allowed to establish themselves for 10 days after which they were randomized to BAY 11-7085 or DMSO. For the mice with intraperitoneal tumors, the mice received DMSO or BAY 11-7085 (5 mg/kg) 24 hours before the cancer cells were injected intrapentoneally. All mice received BAY 11-7085 (5 mg/kg) or an equal volume of DMSO (˜200 μL) twice weekly for 21-32 days. Subcutaneous tumor sizes were determined by measuring the length and width with calipers. These studies were approved by the U. of Utah Institutional Review Board and Institutional Animal Care and Use Committee and performed in the Animal Resource Center. Mice were euthanized when they experienced a greater than 10% loss in body weight or if they appeared ill. Post-mortem examinations included sectioning of kidney, lung, and liver tissues which were stained with hematoxylin and eosin followed by examination for tissue toxicity/damage by an experienced mouse pathologist (E.J.E.) who was blinded to therapy.
(Wang et al., 1999) However, BAY 11-7082 or BAY 11-7085 alone inhibit colon cancer xenograft growth in athymic mice. HC-116, and HT-29 cell lines were used to generate subcutaneous tumors in athymic female mice. The mice were subsequently randomized to be treated with vehicle (DMSO) alone or BAY 11-7085 1 mg/kg twice weekly for 28 days.

[1] = tested on: transiently suspended Caco-2 cells; experiment: Apoptosis (annexin V) of transiently suspended cells allowed to readhere; format: cell-based; conditions: treated
Experimental: Single cell suspensions were plated at 100,000 cells per well in 24-well plates in media containing DMSO, BAY 11-7082, BAY 11-7085, or MG-132 for 8-24 hours in an incubator. Alternatively, DMSO, BAY 11-7082, BAY 11-7085, or MG-132 were added to cells that were confluent and adherent for several days. The nonadherent cells were aspirated off with the media and spun for 3 minutes at 2,000 rpm in 15 ml polypropylene tubes. The adherent cells were washed twice with PBS, dispersed in trypsin, and spun down for 3 minutes at 2,000 rpm in 15 ml polypropylene tubes. The nonadherent and adherent cells were resuspended in 1× binding buffer (10 mM HEPES/NaOH, pH 7.4, 140 mM NaCl, and 2.5 mM CaCl2) to a final concentration of 10^6 cells/ml. […] 400 μl of binding buffer was added to each tube and the cells were analyzed by flow cytometry immediately. The percent of apoptosis was determined as the percent of annexin V-positive, propidium iodide-negative cells of the total cells counted.
Since trypsin can activate protease-activated receptor-2 in colon cancer cell lines, which then results in increased cell proliferation, (Darmoul et al., 2001) NF-κB activation was determined in adherent and confluent DLD-1, HCT-116, Caco-2 and HT-29 cells that were removed from plastic dishes by trypsin or scraping. […]

[2] = tested on: DLD-1 cells expressing IκB super-repressor; experiment: Readhesion survival of cells transduced with adenovirus IκB super-repressor (crystal violet); format: cell-based; conditions: subapoptotic concentrations, readhesion 8 h
Experimental: (§1) The percentage of apoptotic cells was determined using the annexin V assay. The data points represent the averages of three experiments; bars, ±SE. E. DLD-1 and F. HT-29 cells were transduced with an adenovirus containing the IκB super-repressor construct. After 3 days, the cells were transiently suspended and allowed to readhere in the presence of subapoptotic concentrations of BAY 11-7085 or DMSO (vehicle) for 8 h. The data are expressed as fractions of cells surviving compared with the controls (no adenovirus) and were quantitatively determined by staining the remaining adherent cells with crystal violet.
(§2) DLD-1 and HT-29 cells that were approximately 60-70% confluent were transduced with Ad-IκB super-repressor by adding 1-50 μl of purified virus to the cells. […] In a parallel experiment, the transduced cells were resuspended and allowed to readhere in BAY 11-7085 for 8 h. The percentage of surviving (nonapoptotic) cells was determined using crystal violet staining.
(§3) The specific involvement of NF-κB in the apoptotic mechanism of BAY 11-7085 was examined specifically. […] The transduced DLD-1 and HT-29 cells were then transiently suspended and allowed to readhere at concentrations of BAY 11-7085 below the in vitro apoptotic threshold (>20 μM) for these cell lines. […] Therefore, inhibition of NF-κB is important to the apoptotic effect of BAY 11-7085 during colon cancer cell readhesion.

[3] = tested on: HT-29 cells expressing IκB super-repressor; experiment: as above; format: cell-based; conditions: subapoptotic concentrations, readhesion 8 h
Experimental: as §1, §2, §3

SMILES: CC(C)(C)c1ccc(S(=O)(=O)/C=C/C#N)cc1 [BAY 11-7085, (2E)-3-[4-(tertiarybutylphenyl)sulfonyl]-2-propenenitrile]
- p-value, Kruskal-Wallace test of median tumor volumes vs DMSO (HCT-116 xenografts; HCT-116, intraperitoneally twice weekly): > 0.05
- tumor volumes, treatment group compared with control group (HCT-116 xenografts; HCT-116 subcutaneous tumors, 1 mg/kg twice weekly for 28 days, vs DMSO): no statistically significant overall difference in the tumor volumes
- BAY 11-7085-induced apoptosis during readhesion [1]: showed a moderate increase
- apoptotic threshold with IκB super-repressor expression compared with controls [2]: significantly lowered the apoptotic threshold
- apoptotic threshold with IκB super-repressor expression compared with controls [3]: significantly lowered the apoptotic threshold
